Reference: paper PMC10009755, “Discovery and Characterization of BAY-805, a Potent and Selective Inhibitor of Ubiquitin-Specific Protease USP21” (Journal of Medicinal Chemistry, 2023)
Values after ≈ are worked out from the molar mass of the structure shown. Like-named read-outs stand apart in the source and are kept apart here.

Legend:
[1] = log D measurement (HPLC); type: physicochemical; conditions: for chromatographic logD: reverse-phase HPLC, pH 7.5, pH 7.5, HPLC method, read-out: logD7.5; for logD7.5: pH 7.5, HPLC method
Method: log D values at pH 7.5 were recorded using an indirect method for determining hydrophobicity constants by reverse-phase HPLC. A series of compounds with well-known log D values were used for calibration. Test compounds were injected into the same HPLC system. The lipophilicity of compounds was then assessed by comparison to the calibration curve.

[2] = biological target: T1, USP2 (Homo sapiens, UniProt O75604); assay: hUSP2 Ub-rhodamine 110 assay; type: biochemical; conditions: for IC50: arithmetic means of multiple measurements, read-out: IC50 hUSP2 Ub-Rhod
T1 construct: His tag
T1 sequence (O75604 259-605): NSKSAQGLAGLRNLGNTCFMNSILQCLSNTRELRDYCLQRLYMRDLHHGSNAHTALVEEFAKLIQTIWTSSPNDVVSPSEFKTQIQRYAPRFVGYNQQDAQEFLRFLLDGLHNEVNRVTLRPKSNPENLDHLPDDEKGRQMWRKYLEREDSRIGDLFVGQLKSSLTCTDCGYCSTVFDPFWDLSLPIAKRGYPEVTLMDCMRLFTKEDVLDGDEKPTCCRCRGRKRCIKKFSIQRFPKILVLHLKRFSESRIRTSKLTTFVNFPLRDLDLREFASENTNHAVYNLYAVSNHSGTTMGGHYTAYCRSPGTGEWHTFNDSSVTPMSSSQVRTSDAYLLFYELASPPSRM
Method: The final assay volume was 6 μL.

[3] = biological target: T2, USP21 (Homo sapiens, UniProt Q9UK80)
T2 sequence (Q9UK80 1-565): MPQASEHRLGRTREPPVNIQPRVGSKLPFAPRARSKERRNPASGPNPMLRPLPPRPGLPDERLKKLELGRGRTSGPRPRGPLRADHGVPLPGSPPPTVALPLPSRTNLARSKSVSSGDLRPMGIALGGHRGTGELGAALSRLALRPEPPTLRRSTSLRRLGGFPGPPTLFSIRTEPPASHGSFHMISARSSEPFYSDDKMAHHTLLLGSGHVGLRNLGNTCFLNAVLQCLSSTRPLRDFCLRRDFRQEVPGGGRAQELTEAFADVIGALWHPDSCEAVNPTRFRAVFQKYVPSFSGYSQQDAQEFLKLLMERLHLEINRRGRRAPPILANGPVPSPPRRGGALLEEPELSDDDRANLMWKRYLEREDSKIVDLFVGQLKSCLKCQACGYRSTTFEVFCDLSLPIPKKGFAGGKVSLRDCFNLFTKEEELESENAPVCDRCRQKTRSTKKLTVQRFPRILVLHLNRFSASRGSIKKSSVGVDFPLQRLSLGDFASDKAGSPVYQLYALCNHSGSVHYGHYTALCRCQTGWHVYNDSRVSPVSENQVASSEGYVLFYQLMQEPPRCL
Method: The final assay volume was 6 μL. […] First, 2 μL of 1 nM USP21 (or selectivity enzyme) solution was added to the compound plate and preincubated for 15–20 min at room temperature. […] The reaction was stopped by 50 mM citric acid in 25 mM HEPES, pH 7.5, containing 0.01% BSA. […] The USP21 and USP22 were measured with five flashes and USP2 and USP7 in fly mode.

[4] = biological target: T2, USP21; remark: listed apart in the source
Method: To this end, we developed a USP21 activity assay that is based on the deubiquitination of a STING-derived peptide (a USP21-specific substrate[17],[18]) by purified recombinant human full-length USP21 using time-resolved fluorescence resonance energy transfer (TR-FRET) technology (referred to as a homogeneous time-resolved fluorescence (HTRF)-assay, for details see the Supporting Information).[39]
All substrate and enzyme solutions were diluted in an assay buffer. […] Incubation time was 15–20 min at room temperature. […] The stop solution (DUB inhibitor PR619, Abcam) was prepared in 25 mM HEPES, pH 7.5 (Alfa Aesar) containing 0.01% BSA and then left for 10 min at room temperature before filtering with a 0.2 μM PES Membrane (Thermo Fisher). The reaction was stopped with the addition of 2 μL of 200 μM PR619. […] The plates were measured on the ViewLux in screening or PHERAstar FSX in compound profiling. […] The number of flashes per well was set to 3. All of the experimental data were plotted using Genedata analysis. The Z′-factor and S/B of the assay were >0.7 and ∼2, respectively.

[5] = Aqueous solubility; type: physicochemical; conditions: PBS pH 6.5, pH 6.5, PBS pH 6.5
Method: Test compounds were applied as DMSO solutions or directly from powder. After the addition of the buffer, solutions were shaken at rt for 24 h. The undissolved material was removed by filtration or centrifugation. The compound dissolved in the supernatant was quantified by HPLC-UV or HPLC-MS/MS.

[6] = biological target: T3, C-terminal HiBiT-tagged USP21 (Homo sapiens, UniProt Q9UK80); assay: USP21 HiBiT CETSA; type: cell-based; conditions: 49 °C, HEK293T cells
T3 construct: expressed in transfected cells; host or cells: HEK293T
T3 sequence (Q9UK80 1-565): T2 sequence (Q9UK80 1-565)
Method: In particular, we utilized a HiBiT CETSA assay format[42],[43] conducted in intact HEK293T cells. Cells were transfected with USP21 fused to a small proluminescent NanoLuc HiBiT tag, which, when complemented with the Large BiT NanoLuc fragment, produces a quantifiable luminescence signal.
HEK293T cells were seeded in a six-well plate at 8 × 10^5 cells/well in 2 mL of DMEM supplemented with 10% FBS, penicillin (100 U/mL), and streptomycin (100 μg/mL) and transfected 4 h after seeding using an X-tremeGENE HP transfection reagent, following the manufacturer’s instructions with a total of 2 μg of plasmid constructs (C-terminally tagged USP21 HiBiT and empty pCDNA3.1 vector). […] The breathable paper adhesive film was then replaced with a PCR adhesive film, and cells were heated at indicated temperatures in an Applied Biosystems VeritiPro thermal cycler for 3 min, followed by 3 min incubation at rt before the addition of LgBiT solution (200 nM LgBiT, 2% NP-40, protease inhibitors (Roche cOmplete, ethylenediaminetetraacetic acid (EDTA)-free Protease Inhibitor) in OptiMEM no phenol red (Gibco)) to lyse cells.

[7] = tested on: NF-κB activation; assay: NF-κB reporter assay; type: cell-based; conditions: HEK293T cells, up to 10 μM
Method: Yang and colleagues reported that USP21 inhibition induces NF-κB activation by preventing deubiquitination of RIP1.[15] K63 ubiquitinated RIP1 is required for NF-κB activation, and thus USP21-mediated deubiquitination of RIP1 shuts down the NF-κB pathway.
Four hours after replating, cells were treated with compounds or DMSO (note: DMSO concentrations were kept consistent across all cells). Promega Dual-Luciferase Reporter Assay kit was then used to prepare samples for Firefly and Renilla signal measurement on a CLARIOstar microplate reader (BMG) 20 h after compound treatment. Relative luciferase units were calculated by normalizing the Firefly signal to the background Renilla signal, followed by normalization to DMSO controls of wild-type USP21.

[8] = in vitro; type: in vitro ADME; conditions: human, Caco-2, pH 7.2
Method: Caco-2 cells [purchased from the German Collection of Microorganisms and Cell Cultures (DSMZ)] were seeded at a density of 4.5 × 10^4 cells/well on 24-well insert plates [0.4 μm pore size, 0.3 cm^2 (Costar)] and grown for 13–15 days in DMEM medium supplemented with 10% fetal calf serum (FCS), 1% GlutaMAX (100×, Gibco), 100 U/mL penicillin, 100 μg/mL streptomycin (Gibco), and 1% nonessential amino acids (100×, Thermo Fischer Scientific). […] The medium was changed every 2–3 days.
The bidirectional transport assay for the evaluation of Caco-2 permeability was undertaken in 24-well insert plates using a robotic system (Tecan). Before the assay was run, the culture medium was replaced by a transport medium (FCS-free HEPES carbonate transport buffer pH 7.2). For the assessment of monolayer integrity, the transepithelial electrical resistance (TEER) was measured. Only monolayers with a TEER of at least 400 Ω·cm^2 were used. Test compounds were pre-dissolved in DMSO and added either to the apical or basolateral compartment at a final concentration of 2 μM. The evaluation was performed in triplicate. […] The efflux ratio (ER) basolateral (B) to apical (A) was calculated by dividing Papp B–A by Papp A–B.

Compound	chromatographic logD [1]	IC50 [2] [µM]	IC50 [3] [µM]	IC50 [4] [µM]	solubility at 24 h [5] [µM]	other results
COCC(NC(=O)C1CCCC1)C(=O)Nc1nnc(Cc2ccc([N+](=O)[O-])cc2)s1 (centres unmarked) [Compound 4, COCC(NC(=O)C1CCCC1)C(=O)Nc2nnc(Cc3ccc(cc3)[N+](=O)[O-])s2]	2.4					
COCC(NC(=O)c1ccccc1)C(=O)Nc1nnc(Cc2ccc([N+](=O)[O-])cc2)s1 (centres unmarked) [Compound 5, COCC(NC(=O)c1ccccc1)C(=O)Nc2nnc(Cc3ccc(cc3)[N+](=O)[O-])s2]	2.3	> 25	> 20.2	11.8		
COCC(NC(=O)C(C)C)C(=O)Nc1nnc(Cc2ccc([N+](=O)[O-])cc2)s1 (centres unmarked) [Compound 6, COCC(NC(=O)C(C)C)C(=O)Nc1nnc(Cc2ccc(cc2)[N+](=O)[O-])s1]	2	> 25	> 25	> 25		
COCC(NC(=O)C1CCCCC1)C(=O)Nc1nnc(Cc2ccc([N+](=O)[O-])cc2)s1 (centres unmarked) [Compound 7, COCC(NC(=O)C1CCCCC1)C(=O)Nc2nnc(Cc3ccc(cc3)[N+](=O)[O-])s2]	2.6	> 25				
COCC(NC(=O)C1CCOCC1)C(=O)Nc1nnc(Cc2ccc([N+](=O)[O-])cc2)s1 (centres unmarked) [Compound 8, COCC(NC(=O)C1CCOCC1)C(=O)Nc2nnc(Cc3ccc(cc3)[N+](=O)[O-])s2]	1.8	> 25	> 25	> 25		
COCC(NC(=O)C1(C)CCCCC1)C(=O)Nc1nnc(Cc2ccc([N+](=O)[O-])cc2)s1 (centres unmarked) [Compound 9, COCC(NC(=O)C1(C)CCCCC1)C(=O)Nc2nnc(Cc3ccc(cc3)[N+](=O)[O-])s2]	2.9	> 25				
COC[C@@H](NC(=O)C1(C)CCCCC1)C(=O)Nc1nnc(Cc2ccc([N+](=O)[O-])cc2)s1 [Compound 10, COC[C@@H](NC(=O)C1(C)CCCCC1)C(=O)Nc2nnc(Cc3ccc(cc3)[N+](=O)[O-])s2]		> 25		0.074		
COC[C@@H](NC(=O)C1(C)CCCCC1)C(=O)Nc1nnc(Cc2ccc(C#N)cc2)s1 [Compound 11, COC[C@@H](NC(=O)C1(C)CCCCC1)C(=O)Nc2nnc(Cc3ccc(cc3)C#N)s2]	2.7	> 25			126 (≈ 55.8 µg/mL)	logD7.5 [1]: 2.69; cellular thermal stabilization of USP21 (in words) [6]: strong stabilization of USP21; selectivity against USP2 ([2]; vs USP21): > 780 fold; NF-κB activation (in words) [7]: no NF-κB activation up to a concentration of 10 μM
COC[C@@H](NC(=O)C1(C)CCCCC1)C(=O)Nc1nc(C)c(Cc2ccc(C#N)cc2)s1 [Compound 12, COC[C@@H](NC(=O)C1(C)CCCCC1)C(=O)Nc2nc(C)c(Cc3ccc(cc3)C#N)s2]					19.4 (≈ 8.83 µg/mL)	
COC[C@@H](NC(=O)C1(C)CCCCC1)C(=O)Nc1sc(Cc2ccc(C#N)cc2)nc1C [Compound 13, COC[C@@H](NC(=O)C1(C)CCCCC1)C(=O)Nc2sc(Cc3ccc(cc3)C#N)nc2C]			> 25	0.065		
CCC1(C(=O)N[C@H](COC)C(=O)Nc2nnc(Cc3ccc(C#N)cc3)s2)CCCCC1 [Compound 14, CCC1(CCCCC1)C(=O)N[C@H](COC)C(=O)Nc2nnc(Cc3ccc(cc3)C#N)s2]	2.95				71 (≈ 32.4 µg/mL)	
COC[C@@H](NC(=O)C1(OC)CCCCC1)C(=O)Nc1nnc(Cc2ccc(C#N)cc2)s1 [Compound 15, COC[C@@H](NC(=O)C1(CCCCC1)OC)C(=O)Nc2nnc(Cc3ccc(cc3)C#N)s2]	2.59		> 25	21.5	181 (≈ 82.9 µg/mL)	
COC[C@@H](NC(=O)C1(C(F)F)CCCCC1)C(=O)Nc1nnc(Cc2ccc(C#N)cc2)s1 [Compound 16, COC[C@@H](NC(=O)C1(CCCCC1)C(F)F)C(=O)Nc2nnc(Cc3ccc(cc3)C#N)s2]	2.68				131 (≈ 62.5 µg/mL)	
COC[C@@H](NC(=O)C1(C(F)(F)F)CCCCC1)C(=O)Nc1nnc(Cc2ccc(C#N)cc2)s1 [Compound 17, COC[C@@H](NC(=O)C1(CCCCC1)C(F)(F)F)C(=O)Nc2nnc(Cc3ccc(cc3)C#N)s2]	2.95				10.4 (≈ 5.17 µg/mL)	logD7.5 [1]: 3.0; Papp A→B at 2 h, 2 µM ([8]; 2 μM, 2 h): 8.2 ×10⁻⁶ cm/s; efflux ratio at 2 h, 2 µM ([8]; Papp B–A / Papp A–B, read-out: Caco-2 efflux ratio (ER)): 1.5
CC(C)(O)[C@@H](NC(=O)C1(C(F)(F)F)CCCCC1)C(=O)Nc1nnc(Cc2ccc(C#N)cc2)s1 [Compound 19, CC(C)(O)[C@@H](NC(=O)C1(CCCCC1)C(F)(F)F)C(=O)Nc2nnc(Cc3ccc(cc3)C#N)s2]	2.9				80.2 (≈ 40.9 µg/mL)	
